Results on six compounds are retold here after US20250136595A1, “ACYLATED HETEROCYCLIC QUINAZOLINE DERIVATIVES AS INHIBITORS OF ERBB2” (Enliven Inc., priority 2022, published 2025).

The target in one experiment is Ba/F3 ERBB2 YVMA (Homo sapiens, UniProt P04626, DUP772-775, cells depend on it). The experiment is described as follows: Cell viability assay (CellTiter Glo) in Ba/F3 cells engineered to express ERBB2 YVMA. Conditions: Ba/F3 cells expressing human ERBB2 YVMA mutant, 72 hours, % viability, read-out: Ba/F3 ERBB2 YVMA IC50. The format is cell-based, mouse. In a few lines:
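IL-3-independent mouse Ba/F3 line stably transduced with human ERBB2 YVMA, seeded at 3000 cells/well, exposed to serially diluted compound (≤0.1% DMSO) for 72 h at 37° C. ATP read by CellTiter Glo luminescence, normalised to DMSO and media-only controls; sigmoidal nonlinear regression fit.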
A general note: In ATP-based viability assays light output follows the ATP content of the culture.

For experiment [1], the target named is T1, phosphorylated ERBB2 (pERBB2) (Homo sapiens, UniProt P04626).
T1 construct: endogenous in cells; host or cells: BT-474
The experiment is described as follows: Detection of phosphorylated ERBB2 (pERBB2) by ELISA in BT-474 cells. The format is cell-based. The conditions noted are these: four hour incubation with compound. In a few lines:
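BT-474 cells treated 4 h at 37 °C, 5% CO2 with four-fold dilutions (10 μM to 0.01 nM final). Lysates analysed by ELISA for pERBB2, TMB read at OD 450 nm. % relative activity normalised to no-cell (low) and 0.1% DMSO-treated (high) controls.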
Background: An ELISA detects its analyte on a solid surface through an enzyme-linked reagent.

Experiment [2] concerns the target T2, phosphorylated EGFR (pEGFR) (Homo sapiens, UniProt P00533).
T2 construct: performed to measure phosphorylated EGFR levels using A431 cells; endogenous in cells; host or cells: A431
The experiment is described as follows: Detection of phosphorylated EGFR (pEGFR) in EGF-stimulated A431 cells (AlphaLISA). The conditions noted are these: A431 cells (10% FBS), 4 hours incubation, EGF 30 ng/mL for 10 minutes. It counts as cell-based. In a few lines: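 Cells in 10% FBS treated with compound 4 h at 37° C., then stimulated 10 min with 30 ng/mL EGF, lysed, and pEGFR measured by AlphaLISA. Inhibition normalized to DMSO and staurosporine controls; IC50 from four-parameter logistic fit.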
A general note: In Alpha technology, singlet oxygen from a donor bead excites a nearby acceptor bead.

T1 sequence (P04626 23-1255): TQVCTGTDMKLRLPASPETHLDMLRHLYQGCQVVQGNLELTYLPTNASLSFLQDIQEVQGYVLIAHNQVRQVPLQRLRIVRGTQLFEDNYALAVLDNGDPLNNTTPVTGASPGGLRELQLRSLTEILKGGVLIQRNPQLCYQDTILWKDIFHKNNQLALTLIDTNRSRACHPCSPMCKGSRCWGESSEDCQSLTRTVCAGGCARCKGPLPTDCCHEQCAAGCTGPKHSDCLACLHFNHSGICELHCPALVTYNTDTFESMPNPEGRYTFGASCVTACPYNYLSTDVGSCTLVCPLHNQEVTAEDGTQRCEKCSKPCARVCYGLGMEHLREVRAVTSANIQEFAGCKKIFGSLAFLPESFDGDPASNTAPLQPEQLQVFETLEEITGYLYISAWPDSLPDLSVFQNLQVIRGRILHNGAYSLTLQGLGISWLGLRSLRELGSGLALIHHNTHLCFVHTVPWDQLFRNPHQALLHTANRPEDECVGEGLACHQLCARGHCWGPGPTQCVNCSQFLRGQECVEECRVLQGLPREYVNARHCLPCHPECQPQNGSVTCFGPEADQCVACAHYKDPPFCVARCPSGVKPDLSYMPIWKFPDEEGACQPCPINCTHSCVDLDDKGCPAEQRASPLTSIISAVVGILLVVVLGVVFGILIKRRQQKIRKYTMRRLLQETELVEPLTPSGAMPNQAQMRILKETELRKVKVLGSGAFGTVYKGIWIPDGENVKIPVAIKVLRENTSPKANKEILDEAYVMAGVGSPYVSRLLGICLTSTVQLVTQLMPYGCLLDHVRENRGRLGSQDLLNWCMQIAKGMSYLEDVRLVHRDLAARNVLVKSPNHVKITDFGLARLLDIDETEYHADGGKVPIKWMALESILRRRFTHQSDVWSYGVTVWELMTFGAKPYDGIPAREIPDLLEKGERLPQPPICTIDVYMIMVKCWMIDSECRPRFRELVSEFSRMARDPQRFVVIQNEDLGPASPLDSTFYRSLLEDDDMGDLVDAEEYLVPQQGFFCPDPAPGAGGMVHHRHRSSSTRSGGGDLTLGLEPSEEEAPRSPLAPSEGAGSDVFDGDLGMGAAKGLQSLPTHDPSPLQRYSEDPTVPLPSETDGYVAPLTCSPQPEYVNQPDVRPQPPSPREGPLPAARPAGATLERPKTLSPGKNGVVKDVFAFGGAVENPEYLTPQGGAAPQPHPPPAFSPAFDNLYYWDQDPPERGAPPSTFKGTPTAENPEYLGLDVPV
Ba/F3 ERBB2 YVMA, sequence (P04626 with tags, fused parts or gaps DUP772-775): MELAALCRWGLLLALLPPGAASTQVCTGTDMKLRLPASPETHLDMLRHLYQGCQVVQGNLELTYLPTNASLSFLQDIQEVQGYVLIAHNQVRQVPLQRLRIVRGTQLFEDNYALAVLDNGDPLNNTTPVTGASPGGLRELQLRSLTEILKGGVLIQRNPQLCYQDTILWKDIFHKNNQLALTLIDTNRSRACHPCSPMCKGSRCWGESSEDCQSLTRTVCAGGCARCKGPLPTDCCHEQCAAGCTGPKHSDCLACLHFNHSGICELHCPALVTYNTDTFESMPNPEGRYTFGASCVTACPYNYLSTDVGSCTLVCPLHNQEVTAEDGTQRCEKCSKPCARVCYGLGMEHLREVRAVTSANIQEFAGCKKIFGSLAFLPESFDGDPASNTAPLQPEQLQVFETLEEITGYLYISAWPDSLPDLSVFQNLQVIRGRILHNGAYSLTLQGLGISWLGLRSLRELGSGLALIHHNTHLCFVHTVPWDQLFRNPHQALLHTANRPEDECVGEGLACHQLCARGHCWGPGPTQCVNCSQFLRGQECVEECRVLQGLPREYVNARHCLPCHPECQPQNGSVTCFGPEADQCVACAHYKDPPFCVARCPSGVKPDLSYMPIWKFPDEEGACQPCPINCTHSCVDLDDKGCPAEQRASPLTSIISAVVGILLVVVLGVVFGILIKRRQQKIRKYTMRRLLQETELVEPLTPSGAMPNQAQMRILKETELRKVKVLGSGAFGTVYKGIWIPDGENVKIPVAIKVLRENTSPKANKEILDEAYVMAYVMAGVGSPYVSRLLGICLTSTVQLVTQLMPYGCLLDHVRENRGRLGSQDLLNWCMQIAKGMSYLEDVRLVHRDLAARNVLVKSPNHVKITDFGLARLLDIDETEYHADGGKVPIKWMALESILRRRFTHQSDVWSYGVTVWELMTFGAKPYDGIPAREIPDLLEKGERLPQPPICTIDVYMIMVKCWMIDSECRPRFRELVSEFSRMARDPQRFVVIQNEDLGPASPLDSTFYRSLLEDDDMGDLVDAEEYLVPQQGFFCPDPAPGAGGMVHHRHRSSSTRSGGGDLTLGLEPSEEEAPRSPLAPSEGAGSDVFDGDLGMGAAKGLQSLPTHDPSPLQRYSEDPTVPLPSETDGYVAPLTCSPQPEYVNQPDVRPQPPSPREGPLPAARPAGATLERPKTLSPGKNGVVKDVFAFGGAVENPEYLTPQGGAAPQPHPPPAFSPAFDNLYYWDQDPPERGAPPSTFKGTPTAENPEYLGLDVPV
T2 sequence (P00533 25-1210): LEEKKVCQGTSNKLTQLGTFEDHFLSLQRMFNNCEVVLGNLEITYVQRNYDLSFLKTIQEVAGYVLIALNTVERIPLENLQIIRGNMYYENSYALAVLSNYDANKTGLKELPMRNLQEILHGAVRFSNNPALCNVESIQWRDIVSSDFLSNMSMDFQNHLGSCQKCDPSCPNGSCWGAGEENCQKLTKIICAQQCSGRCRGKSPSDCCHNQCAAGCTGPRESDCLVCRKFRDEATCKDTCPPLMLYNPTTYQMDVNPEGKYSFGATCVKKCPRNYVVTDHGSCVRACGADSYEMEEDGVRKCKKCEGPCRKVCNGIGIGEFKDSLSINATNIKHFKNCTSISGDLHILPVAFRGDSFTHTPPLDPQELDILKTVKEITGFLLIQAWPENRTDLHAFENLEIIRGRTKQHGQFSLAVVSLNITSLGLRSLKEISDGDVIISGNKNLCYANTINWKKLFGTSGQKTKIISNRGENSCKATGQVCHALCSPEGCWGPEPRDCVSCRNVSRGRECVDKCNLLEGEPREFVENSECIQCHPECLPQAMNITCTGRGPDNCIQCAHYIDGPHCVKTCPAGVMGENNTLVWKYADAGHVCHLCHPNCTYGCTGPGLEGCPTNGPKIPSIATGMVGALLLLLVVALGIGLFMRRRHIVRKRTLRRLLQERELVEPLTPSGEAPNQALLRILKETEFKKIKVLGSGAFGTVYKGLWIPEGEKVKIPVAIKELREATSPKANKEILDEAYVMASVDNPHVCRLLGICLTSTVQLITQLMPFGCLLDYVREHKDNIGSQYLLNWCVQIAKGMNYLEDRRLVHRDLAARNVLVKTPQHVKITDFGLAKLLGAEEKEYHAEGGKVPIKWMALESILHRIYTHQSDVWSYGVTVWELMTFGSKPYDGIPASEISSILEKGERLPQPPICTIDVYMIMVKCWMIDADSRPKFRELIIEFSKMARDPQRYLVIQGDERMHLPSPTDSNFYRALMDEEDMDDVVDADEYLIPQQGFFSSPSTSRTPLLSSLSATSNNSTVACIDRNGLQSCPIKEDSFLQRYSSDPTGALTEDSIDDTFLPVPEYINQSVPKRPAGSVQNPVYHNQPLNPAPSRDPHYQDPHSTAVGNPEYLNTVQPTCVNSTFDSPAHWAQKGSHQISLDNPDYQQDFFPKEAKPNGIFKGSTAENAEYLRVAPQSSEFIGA

In the case of `Cc1cc(Nc2ncnc3ccc(N4CCN(C(=O)/C=C/CN(C)C)C[C@@H]4C)nc23)ccc1Cc1ccc2c(c1)ncn2C` [Compound 126, (S,E)-4-(dimethylamino)-1-(3-methyl-4-(4-((3-methyl-4-((1-methyl-1H-benzo[d]imidazol-5-yl)methyl)phenyl)amino)pyrido[3,2-d]pyrimidin-6-yl)piperazin-1-yl)but-2-en-1-one], the GI50 on Ba/F3 ERBB2 YVMA was found to be 29.6 nM. Moreover, the figures for the IC50 in experiment [1] and in experiment [2] were 145 nM and above 10000 nM, respectively.
In the same order, the values of `C=CC(=O)N1C2CCC1CN(c1ccc3ncnc(Nc4ccc(Cc5ccn6ncnc6c5)c(C)c4)c3n1)C2` [Compound 127, 1-(3-(4-((4-([1,2,4]triazolo[1,5-a]pyridin-7-ylmethyl)-3-methylphenyl)amino)pyrido[3,2-d]pyrimidin-6-yl)-3,8-diazabicyclo[3.2.1]octan-8-yl)prop-2-en-1-one] are 4.37 nM, 17.5 nM and 2150 nM.
For the compound `C=CC(=O)N1CC2CC1CN2c1ccc2ncnc(Nc3ccc(Cc4ccn5ncnc5c4)c(C)c3)c2n1` (stereo not drawn) [Compound 128, 1-(5-(4-((4-([1,2,4]triazolo[1,5-a]pyridin-7-ylmethyl)-3-methylphenyl)amino)pyrido[3,2-d]pyrimidin-6-yl)-2,5-diazabicyclo[2.2.1]heptan-2-yl)prop-2-en-1-one], the GI50 at Ba/F3 ERBB2 YVMA worked out at 7.45 nM. The IC50 (as a rule, the point on the concentration scale where inhibition reaches its midpoint) in experiment [1] stood at 19.8 nM; in experiment [2], 530 nM.
In the case of `C=CC(=O)N1CCN(c2ccc3ncnc(Nc4ccc(Cc5ccn6ncnc6c5)c(C)c4)c3n2)CC12CC2` [Compound 129, 1-(7-{4-[(3-methyl-4-{[1,2,4]triazolo[1,5-a]pyridin-7-ylmethyl}phenyl)amino]pyrido[3,2-d]pyrimidin-6-yl}-4,7-diazaspiro[2.5]octan-4-yl)prop-2-en-1-one], on Ba/F3 ERBB2 YVMA, the GI50 was found to be 5.32 nM. The half-maximal inhibitory concentration (IC50) in experiment [1] was 21.5 nM; in experiment [2], 317 nM.
In the same order, the values of `C=CC(=O)N1CCN(c2ncc3ncnc(Nc4ccc(Oc5ccc6c(c5)ncn6C)c(C)c4)c3n2)CC1` [Compound 130, 1-(4-(8-((3-methyl-4-((1-methyl-1H-benzo[d]imidazol-5-yl)oxy)phenyl)amino)pyrimido[5,4-d]pyrimidin-2-yl)piperazin-1-yl)prop-2-en-1-one] are 15 nM, 13 nM and 1480 nM.
Take `C=CC(=O)N1CCN(c2ccc3ncnc(Nc4ccc(Cc5ccn6ncnc6c5)c(C)c4)c3n2)CC1(C)C` [Compound 131, 1-(4-(4-((4-([1,2,4]triazolo[1,5-a]pyridin-7-ylmethyl)-3-methylphenyl)amino)pyrido[3,2-d]pyrimidin-6-yl)-2,2-dimethylpiperazin-1-yl)prop-2-en-1-one]: the GI50 at Ba/F3 ERBB2 YVMA was determined as 20 nM. Moreover, the IC50 was found to be 30 nM in experiment [1] and 2390 nM in experiment [2].
